Results reported in the supplement of paper PMC10627819.

What was measured:
S. pneumoniae D39V [1] = test: Bliss interaction score (quartile over a dose matrix) (fitness difference); higher = more antagonism (negative = synergy)
Outline: (§1)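 The Bliss score takes observed fitness and subtracts the expected fitness, calculated as a product of single-drug fitness values. Those single-drug values were inferred from the combination data. Fitness is OD595 at entry into stationary phase divided by the plate's robust no-drug mean, capped at 1, and the score is summarised by quartiles across technical, biological and donor/recipient replicates.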

B. subtilis 168 = test: as above
Outline: as §1

S. aureus Newman [2] = test: as above
Outline: as §1

S. aureus DSM 20231 [3] = test: as above
Outline: as §1

S. pneumoniae D39V [4] = test: fitness (endpoint OD595 vs no drug) (fraction); higher = more growth
Outline: (§2)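 At 37 °C, bacteria in TSB, LB Lennox or CY were grown in 384-well plates from a starting OD595 of 0.01. OD595 was measured every 30 min for 14 h, with the first reading used as background. Fitness is the optical density at the switch to stationary phase as a fraction of the robust mean of no-drug control wells, capped at 1.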

S. aureus Newman [5] = test: as above
Outline: as §2

S. aureus DSM 20231 [6] = test: as above
Outline: as §2
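Throughout, for Bliss interaction score (quartile over a dose matrix): first quartile when negative (synergy) and third quartile when positive (antagonism).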
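Throughout, for fitness (endpoint OD595 vs no drug): OD595 on entry to stationary phase over no-drug wells; at most 1.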

CO/N=C(\C(=O)N[C@@H]1C(=O)N2C(C(=O)O)=C(COC(C)=O)CS[C@H]12)c1csc(N)n1 [Cefotaxime] + CN[C@H](CC(C)C)C(=O)N[C@H]1C(=O)N[C@@H](CC(N)=O)C(=O)N[C@H]2C(=O)N[C@H]3C(=O)N[C@H](C(=O)N[C@H](C(=O)O)c4cc(O)cc(O)c4-c4cc3ccc4O)[C@H](O)c3ccc(c(Cl)c3)Oc3cc2cc(c3O[C@@H]2O[C@H](CO)[C@@H](O)[C@H](O)[C@H]2O[C@H]2C[C@](C)(N)[C@H](O)[C@H](C)O2)Oc2ccc(cc2Cl)[C@H]1O [Vancomycin]
Settings	Bliss interaction score
B. subtilis 168	-0.0945
S. aureus DSM 20231 [3]	-0.0428
S. aureus Newman [2]	-0.0425
S. pneumoniae D39V [1]	-0.084

Settings	fitness
S. aureus DSM 20231 [6], first compound 0.039 µg/mL, partner 0.1875 µg/mL	0.791
S. aureus DSM 20231 [6], first compound 0.039 µg/mL, partner 0.375 µg/mL	0.78
S. aureus DSM 20231 [6], first compound 0.039 µg/mL, partner 0.75 µg/mL	0.805
S. aureus DSM 20231 [6], first compound 0.078 µg/mL, partner 0.1875 µg/mL	0.715
S. aureus DSM 20231 [6], first compound 0.078 µg/mL, partner 0.375 µg/mL	0.795
S. aureus DSM 20231 [6], first compound 0.078 µg/mL, partner 0.75 µg/mL	0.752
S. aureus DSM 20231 [6], first compound 0.156 µg/mL, partner 0.1875 µg/mL	0.629
S. aureus DSM 20231 [6], first compound 0.156 µg/mL, partner 0.375 µg/mL	0.698
S. aureus DSM 20231 [6], first compound 0.156 µg/mL, partner 0.75 µg/mL	0.772
S. aureus DSM 20231 [6], first compound 0.312 µg/mL, partner 0.1875 µg/mL	0.641
S. aureus DSM 20231 [6], first compound 0.312 µg/mL, partner 0.375 µg/mL	0.733
S. aureus DSM 20231 [6], first compound 0.312 µg/mL, partner 0.75 µg/mL	0.82
S. aureus Newman [5], first compound 0.078 µg/mL, partner 0.1875 µg/mL	0.723
S. aureus Newman [5], first compound 0.078 µg/mL, partner 0.375 µg/mL	0.758
S. aureus Newman [5], first compound 0.078 µg/mL, partner 0.75 µg/mL	0.761
S. aureus Newman [5], first compound 0.156 µg/mL, partner 0.1875 µg/mL	0.62
S. aureus Newman [5], first compound 0.156 µg/mL, partner 0.375 µg/mL	0.648
S. aureus Newman [5], first compound 0.156 µg/mL, partner 0.75 µg/mL	0.614
S. aureus Newman [5], first compound 0.625 µg/mL, partner 0.1875 µg/mL	0.0427
S. aureus Newman [5], first compound 0.625 µg/mL, partner 0.375 µg/mL	0.0413
S. aureus Newman [5], first compound 0.625 µg/mL, partner 0.75 µg/mL	0.0855
S. aureus Newman [5], first compound 1.25 µg/mL, partner 0.1875 µg/mL	0.0418
S. aureus Newman [5], first compound 1.25 µg/mL, partner 0.375 µg/mL	0.0511
S. aureus Newman [5], first compound 1.25 µg/mL, partner 0.75 µg/mL	0.0481
S. aureus Newman [5], first compound 2.5 µg/mL, partner 0.1875 µg/mL	0.036
S. aureus Newman [5], first compound 2.5 µg/mL, partner 0.375 µg/mL	0.0526
S. aureus Newman [5], first compound 2.5 µg/mL, partner 0.75 µg/mL	0.0388
S. pneumoniae D39V [4], first compound 0.0018 µg/mL, partner 0.03125 µg/mL	≥ 1
S. pneumoniae D39V [4], first compound 0.0018 µg/mL, partner 0.0625 µg/mL	0.892
S. pneumoniae D39V [4], first compound 0.0018 µg/mL, partner 0.125 µg/mL	0.907
S. pneumoniae D39V [4], first compound 0.0018 µg/mL, partner 0.25 µg/mL	0.909
S. pneumoniae D39V [4], first compound 0.0018 µg/mL, partner 0.5 µg/mL	0.0621
S. pneumoniae D39V [4], first compound 0.0035 µg/mL, partner 0.03125 µg/mL	0.94
S. pneumoniae D39V [4], first compound 0.0035 µg/mL, partner 0.0625 µg/mL	0.803
S. pneumoniae D39V [4], first compound 0.0035 µg/mL, partner 0.25 µg/mL	0.793
S. pneumoniae D39V [4], first compound 0.0035 µg/mL, partner 0.5 µg/mL	0.047
S. pneumoniae D39V [4], first compound 0.007 µg/mL, partner 0.25 µg/mL	0.257
S. pneumoniae D39V [4], first compound 0.007 µg/mL, partner 0.5 µg/mL	0.0521

fitness, S. aureus Newman [5], one replicate
Settings	partner 0.1875 µg/mL	partner 0.375 µg/mL	partner 0.75 µg/mL
first compound 0.039 µg/mL	0.732	0.867	0.784
first compound 0.312 µg/mL	0.34	0.353	0.395

C[C@@H]1O[C@@H]1P(=O)(O)O [Fosfomycin] + Cn1nnc(-c2ccc(-c3ccc(N4C[C@H](CO)OC4=O)cc3F)cn2)n1 [Tedizolid]
Settings	Bliss interaction score
B. subtilis 168	0.0967
S. aureus DSM 20231 [3]	0.069
S. aureus Newman [2]	-0.128
S. pneumoniae D39V [1]	0.0919

fitness
Settings	partner 0.03125 µg/mL	partner 0.0625 µg/mL	partner 0.125 µg/mL	partner 0.25 µg/mL	partner 0.5 µg/mL
S. aureus DSM 20231 [6], first compound 0.781 µg/mL	–	0.693	0.497	0.091	–
S. aureus DSM 20231 [6], first compound 1.562 µg/mL	–	0.66	0.372	0.0334	–
S. aureus DSM 20231 [6], first compound 3.124 µg/mL	–	0.493	0.202	0.0354	–
S. aureus Newman [5], first compound 0.781 µg/mL	–	0.52	–	–	–
S. aureus Newman [5], first compound 1.562 µg/mL	–	–	–	0.101	–
S. aureus Newman [5], first compound 3.124 µg/mL	–	0.106	0.0423	0.0102	–
S. pneumoniae D39V [4], first compound 1.25 µg/mL	0.951	0.95	0.813	0.43	0.138
S. pneumoniae D39V [4], first compound 2.5 µg/mL	0.936	0.906	0.792	0.455	0.132
S. pneumoniae D39V [4], first compound 5 µg/mL	0.89	0.911	0.783	0.437	0.151

Cc1ncc([N+](=O)[O-])n1CCO [Metronidazole] + Cn1nnc(-c2ccc(-c3ccc(N4C[C@H](CO)OC4=O)cc3F)cn2)n1 [Tedizolid]
Settings	Bliss interaction score
B. subtilis 168	-0.0352
S. aureus DSM 20231 [3]	0.0997
S. aureus Newman [2]	0.105
S. pneumoniae D39V [1]	-0.0886

fitness
Settings	partner 0.03125 µg/mL	partner 0.0625 µg/mL	partner 0.125 µg/mL	partner 0.25 µg/mL	partner 0.5 µg/mL
S. aureus DSM 20231 [6], first compound 0.625 µg/mL	–	0.966	0.842	–	–
S. aureus DSM 20231 [6], first compound 1.25 µg/mL	–	0.91	0.839	0.552	–
S. aureus DSM 20231 [6], first compound 2.5 µg/mL	–	0.982	0.851	–	–
S. aureus Newman [5], first compound 0.625 µg/mL	–	0.985	0.875	0.521	–
S. aureus Newman [5], first compound 0.781 µg/mL	–	0.954	0.861	–	–
S. aureus Newman [5], first compound 1.25 µg/mL	–	0.948	0.89	0.509	–
S. aureus Newman [5], first compound 1.562 µg/mL	–	0.951	0.88	–	–
S. aureus Newman [5], first compound 2.5 µg/mL	–	0.93	0.874	–	–
S. aureus Newman [5], first compound 3.124 µg/mL	–	0.957	0.866	–	–
S. pneumoniae D39V [4], first compound 1.073 µg/mL	–	–	0.768	0.856	–
S. pneumoniae D39V [4], first compound 1.25 µg/mL	0.959	0.98	0.831	–	–
S. pneumoniae D39V [4], first compound 2.145 µg/mL	–	–	0.807	0.845	0.255
S. pneumoniae D39V [4], first compound 2.5 µg/mL	0.974	0.998	0.85	–	–
S. pneumoniae D39V [4], first compound 4.29 µg/mL	–	–	0.814	0.838	0.259
S. pneumoniae D39V [4], first compound 5 µg/mL	0.958	0.971	0.85	–	–

COc1ccc(C[C@H](N)C(=O)N[C@H]2[C@@H](O)[C@H](n3cnc4c(N(C)C)ncnc43)O[C@@H]2CO)cc1 [Puromycin] + CN[C@H](CC(C)C)C(=O)N[C@H]1C(=O)N[C@@H](CC(N)=O)C(=O)N[C@H]2C(=O)N[C@H]3C(=O)N[C@H](C(=O)N[C@H](C(=O)O)c4cc(O)cc(O)c4-c4cc3ccc4O)[C@H](O)c3ccc(c(Cl)c3)Oc3cc2cc(c3O[C@@H]2O[C@H](CO)[C@@H](O)[C@H](O)[C@H]2O[C@H]2C[C@](C)(N)[C@H](O)[C@H](C)O2)Oc2ccc(cc2Cl)[C@H]1O [Vancomycin]
Settings	Bliss interaction score
B. subtilis 168	-0.0411
S. aureus DSM 20231 [3]	0.0659
S. aureus Newman [2]	0.0575
S. pneumoniae D39V [1]	-0.0711

fitness
Settings	S. aureus DSM 20231 [6]	S. aureus Newman [5]	S. pneumoniae D39V [4]
first compound 0.39 µg/mL, partner 0.1875 µg/mL	≥ 1	≥ 1	–
first compound 0.39 µg/mL, partner 0.375 µg/mL	0.986	0.996	–
first compound 0.39 µg/mL, partner 0.75 µg/mL	≥ 1	≥ 1	–
first compound 0.78 µg/mL, partner 0.1875 µg/mL	≥ 1	≥ 1	–
first compound 0.78 µg/mL, partner 0.375 µg/mL	≥ 1	0.994	–
first compound 0.78 µg/mL, partner 0.75 µg/mL	≥ 1	0.979	–
first compound 1 µg/mL, partner 0.03125 µg/mL	–	–	0.999
first compound 1 µg/mL, partner 0.0625 µg/mL	–	–	0.989
first compound 1 µg/mL, partner 0.125 µg/mL	–	–	0.8
first compound 1.56 µg/mL, partner 0.1875 µg/mL	≥ 1	≥ 1	–
first compound 1.56 µg/mL, partner 0.375 µg/mL	≥ 1	0.978	–
first compound 1.56 µg/mL, partner 0.75 µg/mL	≥ 1	0.999	–
first compound 2 µg/mL, partner 0.03125 µg/mL	–	–	0.985
first compound 2 µg/mL, partner 0.0625 µg/mL	–	–	0.969
first compound 2 µg/mL, partner 0.125 µg/mL	–	–	0.849
first compound 4 µg/mL, partner 0.03125 µg/mL	–	–	0.808
first compound 4 µg/mL, partner 0.0625 µg/mL	–	–	0.822

one replicate
Settings	fitness
S. aureus DSM 20231 [6], first compound 3.12 µg/mL, partner 0.1875 µg/mL	≥ 1
S. aureus DSM 20231 [6], first compound 3.12 µg/mL, partner 0.375 µg/mL	0.915
S. aureus DSM 20231 [6], first compound 3.12 µg/mL, partner 0.75 µg/mL	0.922
S. aureus DSM 20231 [6], first compound 6.24 µg/mL, partner 0.1875 µg/mL	0.642
S. aureus DSM 20231 [6], first compound 6.24 µg/mL, partner 0.375 µg/mL	0.737
S. aureus DSM 20231 [6], first compound 6.24 µg/mL, partner 0.75 µg/mL	0.716
S. pneumoniae D39V [4], first compound 1 µg/mL, partner 0.25 µg/mL	0.088
S. pneumoniae D39V [4], first compound 1 µg/mL, partner 0.5 µg/mL	0.0805
S. pneumoniae D39V [4], first compound 2 µg/mL, partner 0.25 µg/mL	0.223
S. pneumoniae D39V [4], first compound 2 µg/mL, partner 0.5 µg/mL	0.125
S. pneumoniae D39V [4], first compound 4 µg/mL, partner 0.25 µg/mL	0.141
S. pneumoniae D39V [4], first compound 4 µg/mL, partner 0.5 µg/mL	0.121
